This is an account of results in patent US10738056B2 (Aduro BioTech, Inc., priority 2017, dated 2020).

Like-named read-outs stand apart in the source and are kept apart here. Where only a bound is given, the exact number is not on record here.

In test [1] the test system is cGAS/STING pathway in THP1 cells. The experiment in a line: THP1 cell-based cGAS/STING pathway activity assay (IRF-3-linked luciferase reporter). The method in brief: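 THP1 cells carrying an IRF-3-driven luciferase reporter were read across a range of compound concentrations, and IC50 values were derived from these concentration responses; the assay upper limit was 100 μM.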
In general terms: Reporter assays use an easily measured gene product as a stand-in for the process of interest.

Test [2] deals with Human cGAS amino acids 155-522 (Homo sapiens (Human), UniProt Q8N884). The experiment in a line: cGAS biochemical activity assay (ATP remaining, Kinase-Glo Max luminescence). The note with it: human cGAS 155-522, ATP remaining (Kinase-Glo Max); read-out: cGAS IC50. A general note: Kinase-Glo reads ATP consumption through a luciferase reaction.
Sequence of Human cGAS amino acids 155-522 (Q8N884 157-522): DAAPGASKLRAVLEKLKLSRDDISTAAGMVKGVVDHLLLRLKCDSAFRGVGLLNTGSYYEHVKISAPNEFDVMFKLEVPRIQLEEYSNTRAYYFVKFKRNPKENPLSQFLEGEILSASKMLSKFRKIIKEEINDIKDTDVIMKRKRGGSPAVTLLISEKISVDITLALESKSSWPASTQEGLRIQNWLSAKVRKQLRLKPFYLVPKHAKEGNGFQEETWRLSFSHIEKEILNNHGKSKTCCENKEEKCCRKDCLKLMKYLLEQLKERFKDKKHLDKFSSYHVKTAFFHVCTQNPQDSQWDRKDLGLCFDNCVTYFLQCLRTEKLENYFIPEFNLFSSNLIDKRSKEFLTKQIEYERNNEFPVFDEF

`COc1c(Cl)ccc2oc(-c3c(C)[nH]c4c(-c5ccccc5)c(C(F)(F)F)nn4c3=O)nc12` [Compound C1095, 6-(5-chloro-4-methoxybenzo[d]oxazol-2-yl)-5-methyl-3-phenyl-2-(trifluoromethyl)pyrazolo[1,5-a]pyrimidin-7(4H)-one]: the 50% inhibitory concentration (IC50) – broadly, the concentration needed to halve the response being measured – was greater than 100 µM in test [1] (Homo sapiens, THP-1) and less than 20 µM in test [2].

`COc1ccc(CO)c2oc(-c3c(C)[nH]c4c(-c5ccccc5)c(C(F)(F)F)nn4c3=O)nc12` [Compound C1224, 6-(7-(hydroxymethyl)-4-methoxybenzo[d]oxazol-2-yl)-5-methyl-3-phenyl-2-(trifluoromethyl)pyrazolo[1,5-a]pyrimidin-7(4H)-one]: the IC50 in test [1] (Homo sapiens, THP-1) was greater than 100 µM; in test [2], less than 20 µM.

As for `Cc1[nH]c2c(-c3ccccc3)c(C(F)(F)F)nn2c(=O)c1-c1nnc(C2CCCOC2)o1` (stereo not drawn) [Compound D1015, 5-methyl-3-phenyl-6-(5-(tetrahydro-2H-pyran-3-yl)-1,3,4-oxadiazol-2-yl)-2-(trifluoromethyl)pyrazolo[1,5-a]pyrimidin-7(4H)-one], the IC50 in test [1] (Homo sapiens, THP-1) was greater than 100 µM; in test [2], 20 to 250 µM.

For the compound `COc1cccc2oc(-c3c(C(=O)NCC(O)C(F)(F)F)[nH]c4c(-c5ccccc5)c(C(F)(F)F)nn4c3=O)nc12` (stereo not drawn) [Compound C1209, 6-(4-methoxybenzo[d]oxazol-2-yl)-7-oxo-3-phenyl-N-(3,3,3-trifluoro-2-hydroxypropyl)-2-(trifluoromethyl)-4,7-dihydropyrazolo[1,5-a]pyrimidine-5-carboxamide], the IC50 in test [1] (Homo sapiens, THP-1) was greater than 100 µM; in test [2], less than 20 µM.

Consider `Cc1[nH]c2c(-c3ccccc3)c(C(F)(F)F)nn2c(=O)c1-c1nc2c(o1)CCCNC2=O` [Compound C1059, 2-(5-methyl-7-oxo-3-phenyl-2-(trifluoromethyl)-4,7-dihydropyrazolo[1,5-a]pyrimidin-6-yl)-5,6,7,8-tetrahydro-4H-oxazolo[4,5-c]azepin-4-one], for which the concentration for half-maximal inhibition (IC50) in test [1] (Homo sapiens, THP-1) was greater than 100 µM; in test [2] it was less than 20 µM.

As for `Cc1[nH]c2c(-c3ccccc3)c(C(F)(F)F)nn2c(=O)c1C(=O)Nc1cn[nH]c1` [Compound A1068, 5-methyl-7-oxo-3-phenyl-N-(1H-pyrazol-4-yl)-2-(trifluoromethyl)-4,7-dihydropyrazolo[1,5-a]pyrimidine-6-carboxamide], the half-maximal inhibitory concentration (IC50) in test [1] (Homo sapiens, THP-1) is greater than 100 µM; in test [2], 20 to 250 µM.

For `COc1ccnc(NC(=O)c2c(C)[nH]c3c(-c4ccccc4)c(C(F)(F)F)nn3c2=O)n1` [Compound A1104, N-(4-methoxypyrimidin-2-yl)-5-methyl-7-oxo-3-phenyl-2-(trifluoromethyl)-4,7-dihydropyrazolo[1,5-a]pyrimidine-6-carboxamide], the IC50 is 20 to 100 µM in test [1] (Homo sapiens, THP-1) and less than 20 µM in test [2].

`CC(=O)N1CCOCC1c1nnc(-c2c(C)[nH]c3c(-c4ccccc4)c(C(F)(F)F)nn3c2=O)o1` (stereo not drawn) [Compound D1050, 6-(5-(4-acetylmorpholin-3-yl)-1,3,4-oxadiazol-2-yl)-5-methyl-3-phenyl-2-(trifluoromethyl)pyrazolo[1,5-a]pyrimidin-7(4H)-one]: the 50% inhibitory concentration (IC50) was greater than 100 µM in test [1] (Homo sapiens, THP-1) and 20 to 250 µM in test [2].

Turning to `COc1cccc2oc(-c3c(CO)[nH]c4c(-c5ccccc5)c(C(F)(F)F)nn4c3=O)nc12` [Compound C1103, 5-(hydroxymethyl)-6-(4-methoxybenzo[d]oxazol-2-yl)-3-phenyl-2-(trifluoromethyl)pyrazolo[1,5-a]pyrimidin-7(4H)-one], the 50% inhibitory concentration (IC50) is 20 to 100 µM in test [1] (Homo sapiens, THP-1) and less than 20 µM in test [2].

In the case of `Cc1[nH]c2c(-c3ccccc3)c(C(F)(F)F)nn2c(=O)c1-c1nnc(C2CCOCC2)o1` [Compound D1016, 5-methyl-3-phenyl-6-(5-(tetrahydro-2H-pyran-4-yl)-1,3,4-oxadiazol-2-yl)-2-(trifluoromethyl)pyrazolo[1,5-a]pyrimidin-7(4H)-one], the IC50 in test [1] (Homo sapiens, THP-1) is greater than 100 µM; in test [2], less than 20 µM.

Take `Cc1[nH]c2c(-c3ccccc3)c(C(F)(F)F)nn2c(=O)c1-c1nc2c(N(C)C)cccc2o1` [Compound C1078, 6-(4-(dimethylamino)benzo[d]oxazol-2-yl)-5-methyl-3-phenyl-2-(trifluoromethyl)pyrazolo[1,5-a]pyrimidin-7(4H)-one]: the IC50 in test [1] (Homo sapiens, THP-1) was less than 20 µM; in test [2], less than 20 µM.

As to `CO[C@@H]1CCCC1c1nnc(-c2c(C)[nH]c3c(-c4ccccc4)c(C(F)(F)F)nn3c2=O)o1` (stereo partly drawn) [D1049 Iso-2], the IC50 in test [1] (read-out: THP-1 IC50) is greater than 100 µM; in test [2] it was less than 20 µM.

Take `COc1ccnc2oc(-c3c(C)[nH]c4c(-c5ccccc5)c(C(F)(F)F)nn4c3=O)nc12` [Compound C1058, 6-(7-methoxyoxazolo[5,4-b]pyridin-2-yl)-5-methyl-3-phenyl-2-(trifluoromethyl)pyrazolo[1,5-a]pyrimidin-7(4H)-one]: the IC50 is greater than 100 µM in test [1] (Homo sapiens, THP-1) and less than 20 µM in test [2].

In the case of `COc1cccc2oc(-c3c(COCC(=O)O)[nH]c4c(-c5ccccc5)c(C(F)(F)F)nn4c3=O)nc12` [Compound C1146, 2-((6-(4-methoxybenzo[d]oxazol-2-yl)-7-oxo-3-phenyl-2-(trifluoromethyl)-4,7-dihydropyrazolo[1,5-a]pyrimidin-5-yl)methoxy)acetic acid], the IC50 is greater than 100 µM in test [1] (Homo sapiens, THP-1) and less than 20 µM in test [2].

With `Cc1[nH]c2c(-c3ccccc3)c(C#N)nn2c(=O)c1-c1nc2cccc(N)c2o1` [Compound C1230, 6-(7-aminobenzo[d]oxazol-2-yl)-5-methyl-7-oxo-3-phenyl-4,7-dihydropyrazolo[1,5-a]pyrimidine-2-carbonitrile], the IC50 is greater than 100 µM in test [1] (Homo sapiens, THP-1) and less than 20 µM in test [2].

Regarding `COc1cccc2oc(-c3c(Cn4ccnc4)[nH]c4c(-c5ccccc5)c(C(F)(F)F)nn4c3=O)nc12` [Compound C1180, 5-((1H-imidazol-1-yl)methyl)-6-(4-methoxybenzo[d]oxazol-2-yl)-3-phenyl-2-(trifluoromethyl)pyrazolo[1,5-a]pyrimidin-7(4H)-one], the IC50 in test [1] (Homo sapiens, THP-1) is greater than 100 µM; in test [2], less than 20 µM.

For `Cc1[nH]c2c(-c3ccccc3)c(C(F)(F)F)nn2c(=O)c1-c1nnc(NC(=N)N)o1` [Compound D1077, 1-(5-(5-methyl-7-oxo-3-phenyl-2-(trifluoromethyl)-4,7-dihydropyrazolo[1,5-a]pyrimidin-6-yl)-1,3,4-oxadiazol-2-yl)guanidine], the 50% inhibitory concentration (IC50) in test [1] (Homo sapiens, THP-1) was greater than 100 µM; in test [2], less than 20 µM.

In the case of `Cc1[nH]c2c(-c3ccccc3)c(C(F)(F)F)nn2c(=O)c1C(=O)Nc1cccc(OC(C)C)c1` [Compound A1066, N-(3-isopropoxyphenyl)-5-methyl-7-oxo-3-phenyl-2-(trifluoromethyl)-4,7-dihydropyrazolo[1,5-a]pyrimidine-6-carboxamide], the IC50 was less than 20 µM in test [1] (Homo sapiens, THP-1) and less than 20 µM in test [2].

Take `Cc1[nH]c2c(-c3ccccc3)c(C#N)nn2c(=O)c1-c1nc2ccccc2o1` [Compound C1222, 6-(benzo[d]oxazol-2-yl)-5-methyl-7-oxo-3-phenyl-4,7-dihydropyrazolo[1,5-a]pyrimidine-2-carbonitrile]: the half-inhibitory concentration (IC50) in test [1] (Homo sapiens, THP-1) is 20 to 100 µM; in test [2], less than 20 µM.

Consider `Cc1[nH]c2c(-c3ccccc3)c(C(F)(F)F)nn2c(=O)c1-c1nnc(C2COCCN2)o1` (stereo not drawn) [Compound D1042, 5-methyl-6-(5-(morpholin-3-yl)-1,3,4-oxadiazol-2-yl)-3-phenyl-2-(trifluoromethyl)pyrazolo[1,5-a]pyrimidin-7(4H)-one], for which the concentration for half-maximal inhibition (IC50) is greater than 100 µM in test [1] (Homo sapiens, THP-1) and 20 to 250 µM in test [2].

In the case of `Cc1[nH]c2c(-c3ccccc3)c(C(F)(F)F)nn2c(=O)c1C(=O)Nc1ccccc1S(=O)(=O)C(C)C` [Compound A1051, N-(2-(isopropylsulfonyl)phenyl)-5-methyl-7-oxo-3-phenyl-2-(trifluoromethyl)-4,7-dihydropyrazolo[1,5-a]pyrimidine-6-carboxamide], the concentration for half-maximal inhibition (IC50) in test [1] (Homo sapiens, THP-1) was 20 to 100 µM; in test [2] it was less than 20 µM.

Turning to `Cc1[nH]c2c(-c3ccccc3)c(C#N)nn2c(=O)c1-c1ccccc1` [Compound C1273, 5-methyl-7-oxo-3,6-diphenyl-4,7-dihydropyrazolo[1,5-a]pyrimidine-2-carbonitrile], the half-inhibitory concentration (IC50) is less than 20 µM in test [1] (Homo sapiens, THP-1) and less than 20 µM in test [2].

Take `COc1cccc2oc(-c3c(C)[nH]c4c(-c5ccc(F)cc5)c(C(F)(F)F)nn4c3=O)nc12` [Compound C1107, 3-(4-fluorophenyl)-6-(4-methoxybenzo[d]oxazol-2-yl)-5-methyl-2-(trifluoromethyl)pyrazolo[1,5-a]pyrimidin-7(4H)-one]: the IC50 was less than 20 µM in test [1] (Homo sapiens, THP-1) and greater than 250 µM in test [2].

Regarding `COc1cnccc1NC(=O)c1c(C)[nH]c2c(-c3ccccc3)c(C(F)(F)F)nn2c1=O` [Compound A1099, N-(3-methoxypyridin-4-yl)-5-methyl-7-oxo-3-phenyl-2-(trifluoromethyl)-4,7-dihydropyrazolo[1,5-a]pyrimidine-6-carboxamide], the IC50 in test [1] (Homo sapiens, THP-1) is greater than 100 µM; in test [2], 20 to 250 µM.

Turning to `COc1cccc2c(=O)[nH]c(-c3c(C)[nH]c4c(-c5ccccc5)c(C(F)(F)F)nn4c3=O)nc12` [Compound C1025, 8-methoxy-2-(5-methyl-7-oxo-3-phenyl-2-(trifluoromethyl)-4,7-dihydropyrazolo[1,5-a]pyrimidin-6-yl)quinazolin-4(3H)-one], the concentration for half-maximal inhibition (IC50) in test [1] (Homo sapiens, THP-1) is greater than 100 µM; in test [2], less than 20 µM.

Turning to `Cc1[nH]c2c(-c3ccccc3)c(C(F)(F)F)nn2c(=O)c1-c1nnc(C2CCCCC2)o1` [Compound D1004, 6-(5-cyclohexyl-1,3,4-oxadiazol-2-yl)-5-methyl-3-phenyl-2-(trifluoromethyl)pyrazolo[1,5-a]pyrimidin-7(4H)-one], the IC50 is greater than 100 µM in test [1] (Homo sapiens, THP-1) and less than 20 µM in test [2].

On to `Cc1[nH]c2c(-c3ccccc3)c(C(F)(F)F)nn2c(=O)c1-c1nnc([C@@H]2CCCOC2)o1` [Compound D1026, (R)-5-methyl-3-phenyl-6-(5-(tetrahydro-2H-pyran-3-yl)-1,3,4-oxadiazol-2-yl)-2-(trifluoromethyl)pyrazolo[1,5-a]pyrimidin-7(4H)-one], for which the IC50 is greater than 100 µM in test [1] (Homo sapiens, THP-1) and less than 20 µM in test [2].
